From US20240425486A1, “FUSED BICYCLIC SUBSTITUTED N-(1H-INDOL-7-YL)BENZENESULFONAMIDES AND USES THEREOF” (Triana Biomedicines, Inc., priority 2021, published 2024)

Assays:
[1] = molecular target: DCAF15/RBM39 (Homo sapiens (Human), UniProt Q14498+Q66K64); assay: AlphaLISA compound-induced DCAF15-RBM39 ternary complex formation; format: binding; settings: His-tagged DCAF15 complex and biotin-carrying RBM39
Protocol: Example 7: Quantitative Evaluation of Compound-Induced Ternary Complex Formation Using Amplified Luminescent Proximity Homogeneous Assay
Compound-induced DCAF15-RBM39 ternary complex formation was monitored using AlphaLISA® assays (Perkin Elmer, Waltham, MA). Test compounds were first collected in a 384-well microplate (cat. #781280, Grenier Bio-One, Monroe, NC) as 2 mM stocks in 100% dimethyl sulfoxide (DMSO). These stocks were then serially diluted in DMSO by 3-fold into a new plate (cat. #781280, Grenier Bio-One, Monroe, NC) using a Mosquito HTS dispenser (Mosquito® HTS, SPT Labtech, Boston, MA). 0.2 μL of these diluted stocks were then dispensed into a 384-well Optiplate (cat. #6007290, Perkin Elmer, Waltham, MA) in duplicate wells, to assemble the final assay plate consisting of duplicated dose ranges. Separately, a protein mixture consisting of His-tagged DCAF15 complex and biotin-carrying RBM39, each at 408 nM (2.04×), was prepared in 50 mM HEPES, pH 7.5, 100 mM NaCl, 2 mM MgCl2, 0.1% BSA, 2 mM TCEP, 0.05% Tween-20 (dilution buffer). 9.8 μL of this protein mixture was then mixed with the compounds in the assay plate and incubated for one hour at room temperature. Reaction mixtures with no compounds added were included as negative controls, while a His-tagged and biotinylated GST protein was included to track general assay performance. Nickel Chelate AlphaLISA Acceptor beads (cat. #AL108M, Perkin Elmer, MA) and AlphaScreen Streptavidin Donor beads (cat. #6760002, Perkin Elmer, Waltham, MA) were prepared separately in the dilution buffer as 4× stocks (80 ug/ml). The beads were then added to the assay plate sequentially with incubation at room temperature for 1-2 hours after each addition. Signals were recorded using EnVision 2104 Multilabel Plate Reader (Perkin Elmer, Waltham, MA) and titration curves were generated in GraphPad Prism (7.00, GraphPad, La Jolla, CA).

[2] = molecular target: DCAF15 (Homo sapiens (Human), UniProt Q66K64); assay: HTRF competition assay, binary interaction with DCAF15; format: binding; settings: competition with Alexa Fluor 647 tracer
Protocol: Example 8: Measurement of Binary Interaction Between Compounds and DCAF15 Using Homogeneous Time Resolved Fluorescence (HTRF)
DCAF15 interactions with test compounds were monitored using HTRF competition assays (Cisbio, Bedford, MA). Test compounds were first collected in a 384-well microplate (cat. #781280, Grenier Bio-One, Monroe, NC) as 10 mM stocks in 100% dimethyl sulfoxide (DMSO). A second stock plate (cat. #781280, Grenier Bio-One, Monroe, NC) was prepared through 3-fold serial dilution in DMSO of the afore-mentioned stocks using a Mosquito HTS dispenser (mosquito@ HTS, SPT Labtech, Boston, MA). 0.2 μL of these diluted stocks were then dispensed into a 384-well Optiplate (cat. #6007290, Perkin Elmer, Waltham, MA) in duplicate wells, to assemble the assay plate. The tracer molecule containing an Alexa Fluor 647 probe was prepared in 25 mM HEPES pH 7.5, 100 mM NaCl, 0.1 mg/ml BSA, 0.005% Tween 20, 0.5 mM TCEP (dilution buffer) to 612 nM (2.04×). Separately, His-tagged DCAF15 complex was prepared at 32 nM (4×) in the dilution buffer, and mAb Anti-6His-Eu cryptate Gold (cat. #61H12KLA, Cisbio, Bedford, MA) at 4× dilution in the detection buffer (cat. #61DB9RDF, Cisbio, Bedford, MA). These two solutions were mixed and incubated for 15 min at room temperature. 9.8 μL of the tracer solution and 10 μL of the DCAF15/mAb Anti-6His-Eu cryptate Gold mixture were added sequentially to each well in the assay plate. Reaction mixtures with no DCAF15 added were included as positive controls. The final mixture was incubated for an hour at room temperature and spun down briefly before data collection at 615 nm and 666 nm using EnVision 2104 Multilabel Plate Reader (Perkin Elmer, Bedford, MA). Binding was estimated based on ratiometric analysis and titration curves were generated in GraphPad Prism (7.00, GraphPad, La Jolla, CA).

Chain of DCAF15/RBM39 (Q66K64 whole entry, species assumed): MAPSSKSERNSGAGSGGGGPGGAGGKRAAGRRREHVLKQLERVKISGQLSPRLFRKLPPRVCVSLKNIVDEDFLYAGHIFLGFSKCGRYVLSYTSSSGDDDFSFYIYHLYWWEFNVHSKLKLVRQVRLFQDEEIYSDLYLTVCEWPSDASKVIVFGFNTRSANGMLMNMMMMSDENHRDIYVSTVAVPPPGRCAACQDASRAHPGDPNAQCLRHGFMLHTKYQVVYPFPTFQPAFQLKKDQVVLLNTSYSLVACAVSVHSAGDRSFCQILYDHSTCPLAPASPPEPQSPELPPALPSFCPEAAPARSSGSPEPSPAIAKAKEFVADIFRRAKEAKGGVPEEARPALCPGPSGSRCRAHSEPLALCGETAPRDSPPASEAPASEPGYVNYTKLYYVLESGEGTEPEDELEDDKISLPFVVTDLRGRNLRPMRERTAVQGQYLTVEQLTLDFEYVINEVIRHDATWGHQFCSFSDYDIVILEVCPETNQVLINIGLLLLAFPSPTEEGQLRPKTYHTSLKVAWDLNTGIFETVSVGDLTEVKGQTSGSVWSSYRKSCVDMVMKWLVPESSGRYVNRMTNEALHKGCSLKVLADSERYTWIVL
Chain of DCAF15/RBM39 (Q14498 whole entry, species assumed): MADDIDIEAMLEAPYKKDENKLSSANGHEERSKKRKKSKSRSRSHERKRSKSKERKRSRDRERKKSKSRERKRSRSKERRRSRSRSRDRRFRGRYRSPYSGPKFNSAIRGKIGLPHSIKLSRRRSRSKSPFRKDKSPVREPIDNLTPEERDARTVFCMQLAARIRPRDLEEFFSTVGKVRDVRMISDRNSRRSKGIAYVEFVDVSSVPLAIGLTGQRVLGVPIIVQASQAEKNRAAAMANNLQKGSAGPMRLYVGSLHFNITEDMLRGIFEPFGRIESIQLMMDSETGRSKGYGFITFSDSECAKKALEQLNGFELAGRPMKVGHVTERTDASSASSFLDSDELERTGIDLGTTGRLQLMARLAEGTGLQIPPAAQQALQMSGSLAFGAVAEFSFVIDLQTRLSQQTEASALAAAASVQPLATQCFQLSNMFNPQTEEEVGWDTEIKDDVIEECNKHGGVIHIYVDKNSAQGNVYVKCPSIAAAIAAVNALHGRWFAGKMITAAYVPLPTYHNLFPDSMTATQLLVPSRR
Chain of DCAF15/RBM39 (Q16531 whole entry partner, species assumed): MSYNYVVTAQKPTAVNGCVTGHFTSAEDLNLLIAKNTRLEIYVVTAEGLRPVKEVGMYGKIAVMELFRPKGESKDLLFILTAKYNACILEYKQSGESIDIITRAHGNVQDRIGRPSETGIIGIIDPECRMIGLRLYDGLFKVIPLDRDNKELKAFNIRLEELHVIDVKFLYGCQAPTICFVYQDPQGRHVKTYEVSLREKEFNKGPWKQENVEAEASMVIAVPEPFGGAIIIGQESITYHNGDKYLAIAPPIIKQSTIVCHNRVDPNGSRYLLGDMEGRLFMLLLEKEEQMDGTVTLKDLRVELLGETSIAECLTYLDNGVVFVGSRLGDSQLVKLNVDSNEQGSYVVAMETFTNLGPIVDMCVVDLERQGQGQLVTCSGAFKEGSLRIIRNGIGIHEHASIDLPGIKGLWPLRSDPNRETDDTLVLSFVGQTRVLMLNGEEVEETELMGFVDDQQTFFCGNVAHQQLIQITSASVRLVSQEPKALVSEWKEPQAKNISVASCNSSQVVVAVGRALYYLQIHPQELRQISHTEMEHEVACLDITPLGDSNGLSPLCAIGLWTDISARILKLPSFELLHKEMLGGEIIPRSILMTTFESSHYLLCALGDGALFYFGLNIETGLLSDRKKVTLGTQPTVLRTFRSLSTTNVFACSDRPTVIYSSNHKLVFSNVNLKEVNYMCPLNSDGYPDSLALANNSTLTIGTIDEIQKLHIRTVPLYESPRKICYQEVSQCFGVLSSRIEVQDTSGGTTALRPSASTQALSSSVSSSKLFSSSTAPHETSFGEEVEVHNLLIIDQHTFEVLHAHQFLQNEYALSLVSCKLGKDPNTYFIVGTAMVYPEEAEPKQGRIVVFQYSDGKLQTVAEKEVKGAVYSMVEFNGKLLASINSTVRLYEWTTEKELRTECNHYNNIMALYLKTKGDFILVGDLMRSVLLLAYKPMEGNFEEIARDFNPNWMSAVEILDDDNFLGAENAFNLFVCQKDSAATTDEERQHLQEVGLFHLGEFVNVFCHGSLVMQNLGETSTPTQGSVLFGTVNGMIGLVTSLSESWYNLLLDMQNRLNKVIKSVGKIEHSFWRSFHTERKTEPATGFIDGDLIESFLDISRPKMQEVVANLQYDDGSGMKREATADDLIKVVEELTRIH
Chain of DCAF15 (Q66K64 whole entry): as the sequence (Q66K64 whole entry, species assumed) above
Chain of DCAF15 (Q16531 whole entry partner): as the sequence (Q16531 whole entry partner, species assumed) above

Cn1cc(S(=O)(=O)Nc2ccc(Cl)c3c(Cl)c[nH]c23)c2ccccc21 [Compound 2]
EC50 [1]: 1 to 10 µM

O=S(=O)(Nc1ccc(Cl)c2c(Cl)c[nH]c12)c1cc2cc(F)ccc2s1 [Compound 5]
EC50 [1]: 1 to 10 µM

O=C1CCc2ccc(S(=O)(=O)Nc3ccc(Cl)c4c(Cl)c[nH]c34)cc21 [Compound 7]
IC50 [2]: 1 to 10 µM
EC50 [1]: ≤ 1 µM

CC(=O)N[C@H]1Cc2ccc(S(=O)(=O)Nc3ccc(Cl)c4c(Cl)c[nH]c34)cc2C1 [Compound 8]
IC50 [2]: 1 to 10 µM
EC50 [1]: ≤ 1 µM

CC1(C)Cc2cc(S(=O)(=O)Nc3ccc(Cl)c4c(Cl)c[nH]c34)ccc2O1 [Compound 9]
IC50 [2]: > 100 µM
EC50 [1]: 1 to 10 µM

O=C1OCc2ccc(S(=O)(=O)Nc3ccc(Cl)c4c(Cl)c[nH]c34)cc21 [Compound 10]
IC50 [2]: 1 to 10 µM
EC50 [1]: ≤ 1 µM

O=S(=O)(Nc1ccc(Cl)c2c(Cl)c[nH]c12)c1ccc2occc2c1 [Compound 11]
IC50 [2]: 1 to 10 µM
EC50 [1]: ≤ 1 µM

CC(=O)N1CCc2cc(S(=O)(=O)Nc3ccc(Cl)c4c(Cl)c[nH]c34)ccc21 [Compound 12]
IC50 [2]: 1 to 10 µM
EC50 [1]: 1 to 10 µM

O=C1Nc2ccc(S(=O)(=O)Nc3ccc(Cl)c4c(Cl)c[nH]c34)cc2C1=O [Compound 14]
IC50 [2]: 1 to 10 µM
EC50 [1]: 1 to 10 µM

CC(=O)N1Cc2ccc(S(=O)(=O)Nc3ccc(Cl)c4c(Cl)c[nH]c34)cc2C1 [Compound 15]
IC50 [2]: 1 to 10 µM
EC50 [1]: 1 to 10 µM

CN1C(=O)c2ccc(S(=O)(=O)Nc3ccc(Cl)c4c(Cl)c[nH]c34)cc2C1=O [Compound 16]
IC50 [2]: 1 to 10 µM
EC50 [1]: 1 to 10 µM

O=S(=O)(Nc1ccc(Cl)c2c(Cl)c[nH]c12)c1ccc2c(c1)OC(F)(F)O2 [Compound 18]
IC50 [2]: 1 to 10 µM
EC50 [1]: ≤ 1 µM

Cn1c(=O)n(C)c2cc(S(=O)(=O)Nc3ccc(Cl)c4c(Cl)c[nH]c34)ccc21 [Compound 19]
IC50 [2]: 10 to 100 µM
EC50 [1]: 1 to 10 µM

O=c1[nH]c2ccc(S(=O)(=O)Nc3ccc(Cl)c4c(Cl)c[nH]c34)cc2o1 [Compound 21]
EC50 [1]: 1 to 10 µM

Cn1c(=O)oc2cc(S(=O)(=O)Nc3ccc(Cl)c4c(Cl)c[nH]c34)ccc21 [Compound 22]
IC50 [2]: 1 to 10 µM
EC50 [1]: ≤ 1 µM

O=C1NS(=O)(=O)c2ccc(S(=O)(=O)Nc3ccc(Cl)c4c(Cl)c[nH]c34)cc21 [Compound 23]
IC50 [2]: 1 to 10 µM
EC50 [1]: 1 to 10 µM

O=S(=O)(Nc1ccc(Cl)c2c(Cl)c[nH]c12)c1ccc2c(c1)CCCC2 [Compound 24]
IC50 [2]: > 100 µM
EC50 [1]: 1 to 10 µM

O=S(=O)(Nc1ccc(Cl)c2c(Cl)c[nH]c12)c1ccc2ccccc2c1F [Compound 25]
IC50 [2]: 1 to 10 µM
EC50 [1]: ≤ 1 µM

O=S(=O)(Nc1ccc(Cl)c2c(Cl)c[nH]c12)c1ccc2c(Cl)ccc(Cl)c2c1 [Compound 28]
EC50 [1]: 10 to 100 µM

O=S(=O)(Nc1ccc(Cl)c2c(Cl)c[nH]c12)c1ccc2c(c1)CC[C@@H](C(F)F)O2 [Compound 29]
IC50 [2]: 10 to 100 µM
EC50 [1]: 1 to 10 µM

O=C1CCOc2ccc(S(=O)(=O)Nc3ccc(Cl)c4c(Cl)c[nH]c34)cc21 [Compound 30]
EC50 [1]: 1 to 10 µM

O=C1OCCc2ccc(S(=O)(=O)Nc3ccc(Cl)c4c(Cl)c[nH]c34)cc21 [Compound 31]
IC50 [2]: 1 to 10 µM
EC50 [1]: ≤ 1 µM

O=C(N1CCc2ccc(S(=O)(=O)Nc3ccc(Cl)c4c(Cl)c[nH]c34)cc2C1)C(F)(F)F [Compound 33]
EC50 [1]: ≤ 1 µM

O=C1NCCc2ccc(S(=O)(=O)Nc3ccc(Cl)c4c(Cl)c[nH]c34)cc21 [Compound 34]
IC50 [2]: 1 to 10 µM
EC50 [1]: 1 to 10 µM

O=C1CCc2cc(S(=O)(=O)Nc3ccc(Cl)c4c(Cl)c[nH]c34)c(F)cc2N1 [Compound 35]
IC50 [2]: 1 to 10 µM
EC50 [1]: 1 to 10 µM

CC1(C)CC(=O)Nc2ccc(S(=O)(=O)Nc3ccc(Cl)c4c(Cl)c[nH]c34)cc21 [Compound 36]
IC50 [2]: 1 to 10 µM
EC50 [1]: ≤ 1 µM

O=c1ccc2cc(S(=O)(=O)Nc3ccc(Cl)c4c(Cl)c[nH]c34)ccc2[nH]1 [Compound 37]
IC50 [2]: 1 to 10 µM
EC50 [1]: ≤ 1 µM

O=S(=O)(Nc1ccc(Cl)c2c(Cl)c[nH]c12)c1cc(Br)c2c(c1)OCCO2 [Compound 38]
IC50 [2]: 1 to 10 µM
EC50 [1]: 1 to 10 µM

O=C1COc2ccc(S(=O)(=O)Nc3ccc(Cl)c4c(Cl)c[nH]c34)cc2N1 [Compound 39]
EC50 [1]: 1 to 10 µM

O=C1COc2cc(S(=O)(=O)Nc3ccc(Cl)c4c(Cl)c[nH]c34)ccc2N1 [Compound 40]
EC50 [1]: ≤ 1 µM

CN1Cc2cc(S(=O)(=O)Nc3ccc(Cl)c4c(Cl)c[nH]c34)ccc2OC1=O [Compound 41]
IC50 [2]: 1 to 10 µM
EC50 [1]: ≤ 1 µM

Cn1c(=O)c2cc(S(=O)(=O)Nc3ccc(Cl)c4c(Cl)c[nH]c34)ccc2n(C)c1=O [Compound 43, N-(3,4-dichloro-1H-indol-7-yl)-1,3-dimethyl-2,4-dioxo-1,2,3,4-tetrahydroquinazoline-6-sulfonamide]
EC50 [1]: ≤ 1 µM

O=C1COc2cc(S(=O)(=O)Nc3ccc(Cl)c4c(Cl)c[nH]c34)cnc2N1 [Compound 45]
IC50 [2]: 10 to 100 µM
EC50 [1]: ≤ 1 µM

CC(C)(C)OC(=O)N1CCCc2cc(S(=O)(=O)Nc3ccc(Cl)c4c(Cl)c[nH]c34)ccc2C1 [Compound 46]
EC50 [1]: 1 to 10 µM

CC(C)(C)OC(=O)N1CCCc2cc(S(=O)(=O)Nc3ccc(Cl)c4c(Cl)c[nH]c34)ccc2C1 [Compound 47]
IC50 [2]: 1 to 10 µM
EC50 [1]: ≤ 1 µM

O=C1NCCOc2ccc(S(=O)(=O)Nc3ccc(Cl)c4c(Cl)c[nH]c34)cc21 [Compound 48]
IC50 [2]: 1 to 10 µM
EC50 [1]: ≤ 1 µM

O=C1CCSc2ccc(S(=O)(=O)Nc3ccc(Cl)c4c(Cl)c[nH]c34)cc2N1 [Compound 49]
IC50 [2]: 1 to 10 µM
EC50 [1]: ≤ 1 µM
